For series [1], the target named is Secretin receptor (Homo sapiens, UniProt P47872). Nature of the series: Agonist activity human SCTR stably expressed in CHO-K1 cells assessed as […] in cAMP accumulation incubated for 30 mins by TR-FRET assay. Type of series: functional, cell-based.
Series [2] is described as follows: Chemical stability of compound at pH 8 assessed as compound degradation. Conditions: buffer; for degraded: read-out: Drug degradation. Type of series: physicochemical.
Series [3] in a line: Chemical stability of compound at pH 7 assessed as compound degradation. Type of series: physicochemical. To be noted: buffer.
Series [4] deals with Glucagon-like peptide 1 receptor (Homo sapiens, UniProt P43220). Description: Agonist activity human GLP-1R stably expressed in CHO-K1 cells assessed as […] in cAMP accumulation incubated for 30 mins by TR-FRET assay. Type of series: functional, cell-based.
Chain of Glucagon-like peptide 1 receptor (P43220 whole entry): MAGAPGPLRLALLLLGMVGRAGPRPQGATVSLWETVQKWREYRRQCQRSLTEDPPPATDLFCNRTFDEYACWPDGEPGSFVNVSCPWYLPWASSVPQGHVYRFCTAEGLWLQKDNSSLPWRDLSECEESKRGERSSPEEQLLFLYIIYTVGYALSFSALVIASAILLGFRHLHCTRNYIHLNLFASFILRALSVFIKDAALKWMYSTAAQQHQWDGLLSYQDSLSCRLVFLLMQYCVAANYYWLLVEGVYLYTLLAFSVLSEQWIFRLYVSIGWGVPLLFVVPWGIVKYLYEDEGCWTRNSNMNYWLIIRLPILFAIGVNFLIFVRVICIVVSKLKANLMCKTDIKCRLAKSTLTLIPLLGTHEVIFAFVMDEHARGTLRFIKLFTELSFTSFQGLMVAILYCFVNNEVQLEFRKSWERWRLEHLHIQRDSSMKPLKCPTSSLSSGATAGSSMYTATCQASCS
For series [5], the species on record is Homo sapiens. Nature of the series: Selectivity index, ratio of EC50 for agonist activity human SCTR stably expressed in CHO-K1 cells assessed as […] in cAMP accumulation to EC50 for agonist activity human GLP-1R stably expressed in CHO-K1 cells assessed as […] in cAMP accumulation. Type of series: cell-based.
For series [6], the target named is T1, Glucagon-like peptide 2 receptor (Homo sapiens) (UniProt O95838).
T1 sequence (whole entry): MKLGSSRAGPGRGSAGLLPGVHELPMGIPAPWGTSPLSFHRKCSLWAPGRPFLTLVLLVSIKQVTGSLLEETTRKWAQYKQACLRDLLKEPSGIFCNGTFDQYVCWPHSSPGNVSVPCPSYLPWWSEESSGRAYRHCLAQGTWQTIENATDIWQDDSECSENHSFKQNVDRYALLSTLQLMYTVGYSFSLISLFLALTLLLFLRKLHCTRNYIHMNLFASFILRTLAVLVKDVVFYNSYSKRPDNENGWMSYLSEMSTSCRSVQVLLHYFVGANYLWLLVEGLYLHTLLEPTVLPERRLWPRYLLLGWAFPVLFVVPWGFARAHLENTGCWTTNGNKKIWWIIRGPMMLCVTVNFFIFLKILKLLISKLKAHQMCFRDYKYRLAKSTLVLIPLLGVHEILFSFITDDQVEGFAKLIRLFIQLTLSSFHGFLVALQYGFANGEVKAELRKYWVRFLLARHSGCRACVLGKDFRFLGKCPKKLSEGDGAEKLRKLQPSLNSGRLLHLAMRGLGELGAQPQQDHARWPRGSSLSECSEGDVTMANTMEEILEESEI
Nature of the series: Activation of GLP-2R (unknown origin) upto 3000 nM.

Series [7] relates to Mus musculus. Nature of the series: Protection against diet-induced obesity in C57BL/6JRj mouse model assessed as reduction in whole-body adipose tissue mass at 3 to 30 nmol/kg administered once daily for 28 days. It is filed as functional, organism-based. Conditions: dose 3-30 nmol/kg, time 28.0 day.
Series [8] addresses T2, Gastric inhibitory polypeptide receptor (Homo sapiens) (UniProt P48546).
T2 sequence (whole entry): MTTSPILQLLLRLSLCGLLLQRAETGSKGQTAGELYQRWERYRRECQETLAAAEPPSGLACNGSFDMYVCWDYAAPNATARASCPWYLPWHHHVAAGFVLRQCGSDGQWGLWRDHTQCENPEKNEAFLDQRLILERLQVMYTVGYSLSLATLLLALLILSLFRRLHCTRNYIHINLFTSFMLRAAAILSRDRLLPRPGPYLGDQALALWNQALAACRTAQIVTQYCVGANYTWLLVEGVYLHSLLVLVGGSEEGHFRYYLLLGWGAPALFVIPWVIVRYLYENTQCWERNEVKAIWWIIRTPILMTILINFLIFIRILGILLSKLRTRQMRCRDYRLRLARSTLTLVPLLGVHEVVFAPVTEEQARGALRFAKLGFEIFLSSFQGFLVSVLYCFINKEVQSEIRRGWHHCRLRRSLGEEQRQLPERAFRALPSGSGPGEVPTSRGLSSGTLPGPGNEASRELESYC
Description: Activation of GIPR (unknown origin) upto 3000 nM.

Series [9] has as its system Mus musculus. Description: Protection against diet-induced obesity in sc dosed C57BL/6JRj mouse model assessed as reduction in food intake administered once daily for 28 days and measured after 2 to 3 days. It is filed as functional, organism-based. To be noted: dose 3-30 nmol/kg, time 28-31 day.
Series [10] deals with Glucagon receptor (Homo sapiens) (UniProt P47871). Nature of the series: Activation of GCGR (unknown origin) upto 3000 nM.
Chain of Glucagon receptor (Homo sapiens) (P47871 whole entry): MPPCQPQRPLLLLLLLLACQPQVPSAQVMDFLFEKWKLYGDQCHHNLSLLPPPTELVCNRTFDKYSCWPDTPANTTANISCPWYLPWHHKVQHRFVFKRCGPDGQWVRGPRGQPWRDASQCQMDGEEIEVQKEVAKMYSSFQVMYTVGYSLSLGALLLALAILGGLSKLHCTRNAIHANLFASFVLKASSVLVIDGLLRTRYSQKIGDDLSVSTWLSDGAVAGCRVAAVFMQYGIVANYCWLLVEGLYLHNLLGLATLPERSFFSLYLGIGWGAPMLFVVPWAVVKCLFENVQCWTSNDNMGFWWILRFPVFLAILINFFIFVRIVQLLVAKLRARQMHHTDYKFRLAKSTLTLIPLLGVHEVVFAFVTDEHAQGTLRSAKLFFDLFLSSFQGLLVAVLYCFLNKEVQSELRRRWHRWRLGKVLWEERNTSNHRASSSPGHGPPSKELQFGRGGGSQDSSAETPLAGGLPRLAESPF
A short description of series [11]: Drug concentration in sc dosed C57BL/6JRj mouse plasma administered once daily for 28 days and measured after 24 hrs by LC-MS/MS analysis. Type of series: ADME, organism-based. To be noted: in vivo, 696 h, dose 3-30 nmol/kg, time 29 day.
A short description of series [12]: Toxicity in sc dosed C57BL/6JRj mouse model assessed as reduction in body weight administered once daily for 28 days. It is filed as organism-based. To be noted: in vivo, 672 h, dose 3-30 nmol/kg, time 28 day.

pEC50: −log10 of the molar value. Active and inactive are the calls of the source. The rule behind the calls is not given here. Numbered stars: 1 amine (or outer) side, 2 acyl side, 3 side chain; on linkers, the order of the positions; unused ones are H or OH. Square brackets hold non-standard residues; d marks the D form. Side chains are listed from the residue outwards. Peptide text beside a SMILES is read from it. * marks the point of attachment. ξ: configuration not given here. C20 diacid = O=C(O)CCCCCCCCCCCCCCCCCCC(=O)*; γGlu = O=C(O)[C@H](CCC(=O)[*:2])N[*:1]; ξγGlu = O=C(O)C(CCC(=O)[*:2])N[*:1]; AEEA = NCCOCCOCC(=O)O; Aib = CC(C)(N)C(=O)O

The results in this text go back to ChEMBL document CHEMBL5523742 (J Med Chem, 2024).

Chain of Secretin receptor (P47872 whole entry): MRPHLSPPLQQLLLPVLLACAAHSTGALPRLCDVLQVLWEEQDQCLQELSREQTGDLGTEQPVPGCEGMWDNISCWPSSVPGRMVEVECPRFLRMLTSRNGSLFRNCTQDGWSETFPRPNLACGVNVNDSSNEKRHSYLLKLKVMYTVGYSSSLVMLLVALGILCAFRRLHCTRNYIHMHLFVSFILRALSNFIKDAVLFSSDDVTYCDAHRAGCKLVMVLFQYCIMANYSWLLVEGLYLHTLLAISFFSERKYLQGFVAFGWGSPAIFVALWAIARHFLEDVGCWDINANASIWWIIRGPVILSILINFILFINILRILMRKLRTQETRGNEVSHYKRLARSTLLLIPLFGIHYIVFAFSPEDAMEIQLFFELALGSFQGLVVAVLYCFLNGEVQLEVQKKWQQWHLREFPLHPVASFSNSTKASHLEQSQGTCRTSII

As for `CC[C@H](C)[C@H](NC(=O)[C@H](Cc1ccccc1)NC(=O)[C@H](CCC(=O)O)NC(=O)[C@H](CCCCN)NC(=O)[C@H](C)NC(=O)[C@H](C)NC(=O)[C@H](CCC(N)=O)NC(=O)CNC(=O)[C@H](CCC(=O)O)NC(=O)[C@H](CC(C)C)NC(=O)[C@H](Cc1ccc(O)cc1)NC(=O)[C@H](CO)NC(=O)[C@H](CO)NC(=O)[C@@H](NC(=O)[C@H](CC(=O)O)NC(=O)[C@H](CO)NC(=O)[C@@H](NC(=O)[C@H](Cc1ccccc1)NC(=O)[C@@H](NC(=O)CNC(=O)[C@H](CCC(=O)O)NC(=O)[C@H](C)NC(=O)[C@@H](N)Cc1c[nH]cn1)[C@H](C)O)[C@@H](C)O)C(C)C)C(=O)N[C@@H](C)C(=O)N[C@@H](Cc1c[nH]c2ccccc12)C(=O)N[C@@H](CC(C)C)C(=O)N[C@H](C(=O)N[C@@H](CCCCN)C(=O)NCC(=O)N[C@@H](CCCNC(=N)N)C(=O)O)C(C)C`, the negative-log EC50 (pEC50) in series [1] is 6.10. Moreover, in series [2], the degraded was 8.1%.
In the case of SECRETIN [listing 1 of 2 here], the Drug degradation was 8.6% in series [3] and 9% in [2]. In addition, the figures for the pEC50 in [1] (cho-k1) and in series [4] were 11.70 and 5.64, respectively.
As to SECRETIN [listing 2 of 2 here], the Ratio EC50 in series [5] was 1 10^-6No_unit.
Regarding `CC(C)C[C@H](NC(=O)[C@H](Cc1ccccc1)NC(=O)[C@H](CCCNC(=N)N)NC(=O)[C@H](CCC(N)=O)NC(=O)[C@H](CC(C)C)NC(=O)C(C)(C)NC(=O)[C@H](C)NC(=O)[C@H](CCC(=O)O)NC(=O)[C@H](CCC(=O)O)NC(=O)[C@H](CCCCNC(=O)COCCOCCNC(=O)COCCOCCNC(=O)CCC(NC(=O)CCCCCCCCCCCCCCCCCCC(=O)O)C(=O)O)NC(=O)[C@H](CC(C)C)NC(=O)[C@H](Cc1ccc(O)cc1)NC(=O)[C@H](CO)NC(=O)[C@@H](NC(=O)[C@H](CC(=O)O)NC(=O)[C@H](CO)NC(=O)[C@@H](NC(=O)[C@H](Cc1ccccc1)NC(=O)[C@@H](NC(=O)CNC(=O)[C@H](CCC(=O)O)NC(=O)C(C)(C)NC(=O)[C@@H](N)Cc1c[nH]cn1)[C@@H](C)O)[C@@H](C)O)C(C)C)C(=O)N[C@@H](CCC(=O)O)C(=O)N[C@@H](Cc1c[nH]cn1)C(=O)N[C@@H](CC(C)C)C(=O)N[C@H](C(N)=O)C(C)C` (some centres not stated) (H-H[Aib]EGTFTSDVSYLK([AEEA-AEEA-ξγGlu-C20 diacid])EEA[Aib]LQRFLEHLV-NH2), the outcome in series [6], in [8] and in series [10] was inactive. For the same compound, the Ratio EC50 in series [5] was found to be 10600. Further, the outcome in series [7] was Active. Also, the Activity result in series [9] is “Dose-Dependent Effect”.
For the compound `CC(C)C[C@H](NC(=O)[C@H](Cc1ccccc1)NC(=O)[C@H](CCCNC(=N)N)NC(=O)[C@H](CCC(N)=O)NC(=O)[C@H](CC(C)C)NC(=O)C(C)(C)NC(=O)[C@H](C)NC(=O)[C@H](CCC(=O)O)NC(=O)[C@H](CCC(=O)O)NC(=O)[C@H](CCCCNC(=O)COCCOCCNC(=O)COCCOCCNC(=O)CC[C@H](NC(=O)CCCCCCCCCCCCCCCCCCC(=O)O)C(=O)O)NC(=O)[C@H](CC(C)C)NC(=O)[C@H](Cc1ccc(O)cc1)NC(=O)[C@H](CO)NC(=O)[C@@H](NC(=O)[C@H](CC(=O)O)NC(=O)[C@H](CO)NC(=O)[C@@H](NC(=O)[C@H](Cc1ccccc1)NC(=O)[C@@H](NC(=O)CNC(=O)[C@H](CCC(=O)O)NC(=O)C(C)(C)NC(=O)[C@@H](N)Cc1c[nH]cn1)[C@@H](C)O)[C@@H](C)O)C(C)C)C(=O)N[C@@H](CCC(=O)O)C(=O)N[C@@H](Cc1c[nH]cn1)C(=O)N[C@@H](CC(C)C)C(=O)N[C@H](C(N)=O)C(C)C` (H-H[Aib]EGTFTSDVSYLK([AEEA-AEEA-γGlu-C20 diacid])EEA[Aib]LQRFLEHLV-NH2), the Cp result in [11] was “Dose-Dependent Effect”. For the same compound, the degraded in [3] (read-out: Drug degradation) is 1.4%; in series [2] it was 0.55%. For the same compound, in series [12], the Activity result is recorded as “Dose-Dependent Effect”.
